# Peptide text beside a SMILES is read from it. * marks the point of attachment. Palmitoyl = CCCCCCCCCCCCCCCC(=O)*
# Key:
# [1] = Pharmacokinetics of PAR1 pepducins in CF-1 mice, plasma LC/MS/MS; type: in vivo, mouse; parameters: Peak plasma level: unit not given here; details: 10 mg/kg s.c.
# Description: FIG. 14 illustrates pharmacokinetics of PAR1 pepducins. (A): CF-1 mice were injected subcutaneously with P1pal-7 (3 mg/kg, open circles), P1pal-7 (10 mg/kg, closed circles), P1pal-10S (10 mg/kg, gray circles), or P1pal-i1-11 (10 mg/kg, open squares) in 20% dimethyl sulfoxide and blood was collected at indicated time points (n=3). Pepducin levels in plasma were quantified with LC/MS/MS. (B): Daily (D1 to D6) plasma levels of P1pal-7 after subcutaneous injection of 10 mg/kg P1pal-7 were measured at 1 hour (open circles) and 24 hours (open squares).
# Pharmacokinetics of plasma levels of P1pal-7, P1pal-10S, and P1pal-i1-11 at 30 minutes, and at 1, 2, 4, 6, 8, and 16 hours was measured by LC/MS/MS to determine steady-state pepducin drug levels and the rate of elimination from mice. Subcutaneous injections of P1pal-7 (3 mg/kg or 10 mg/kg) into wild-type CF-1 mice (25 to 30 g) was followed by blood collection at various time points from the vena cava. […] Residual P1pal-7 levels were 10 nmol/L at the 16-hour time point. After the 4-hour plateau, the elimination rate was linear from 4 to 16 hours. The peak plasma level of 3 mg/kg P1pal-7 reached 0.6 μmol/L at 2 hours and elimination was linear between 2 hours and 16 hours. P1pal-10S (10 mg/kg) gave similar peak plasma level of 1.0 μmol/L as P1pal-7 (10 mg/kg) at 1 hour.
# Lastly, the peak plasma level of P1pal-7 (10 mg/kg) was measured before and 1 hour after once-daily subcutaneous injection over 6 days to determine whether the peak plasma levels were consistent on daily administration.
# PAR1 = molecular target: T1, PAR1 (Homo sapiens, UniProt P25116); test: Human platelet Ca2+ flux stimulated with SFLLRN; type: cell-based; parameters: endogenous in cells; host or cells: A549, HOP62, H1299, H522, H226, HOP92 lung carcinoma lines; details: human platelets
# T1 sequence (P25116 22-425): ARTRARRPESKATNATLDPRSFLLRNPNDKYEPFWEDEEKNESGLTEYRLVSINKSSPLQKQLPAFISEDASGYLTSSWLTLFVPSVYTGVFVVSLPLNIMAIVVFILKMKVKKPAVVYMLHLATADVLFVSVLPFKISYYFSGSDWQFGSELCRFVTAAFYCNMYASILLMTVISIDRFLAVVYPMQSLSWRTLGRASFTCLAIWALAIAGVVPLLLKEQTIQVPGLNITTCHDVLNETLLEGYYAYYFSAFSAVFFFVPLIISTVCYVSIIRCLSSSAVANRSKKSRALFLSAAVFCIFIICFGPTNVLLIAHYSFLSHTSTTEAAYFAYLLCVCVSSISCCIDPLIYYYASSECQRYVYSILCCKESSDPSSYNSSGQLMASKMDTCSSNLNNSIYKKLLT
# Source text: FIG. 8 illustrates data that show membrane-tethered PAR1-i3 and i1 pepducins block Ca^2+ flux and migration. (A): Model of PAR1 based on the […] structure of rhodopsin from Swift et al., 2006. Protease cleaved receptor results in generation of a new tethered ligand. The topologic arrangement of the […] to i4 loops and G proteins are illustrated. Schematic diagram of palmitoylated PAR1 i3 and i1 pepducins and their amino acid sequence composition are shown. (B): Effect of PAR1 pepducins on human platelets Ca^2+ flux. Platelets were preincubated with indicated concentrations of pepducins and stimulated with SFLLRN. Effect of blockade is expressed as the percentage of full Ca^2+ signal generated with SFLLRN in the absence of inhibitors. (C): Migration of A549 cells toward 0.3 nmol/L thrombin or 10 μmol/L […] in the presence or absence of 3 μmol/L P1pal-7, P1pal-10S, or P1pal-i1-11 after 18 hours. […] Cell migration is expressed as fold migration of ligand-mediated migration divided by basal migration.
# First, it had been previously shown that PAR1 strongly couples to Gq in human platelets as assessed by Ca^++ signaling. In order to determine effect of i1 and i3 pepducins on PAR1 mediated Gq-PLCβ-lnsP3 signaling, human platelets were pretreated with PAR1 pepducins and stimulated with SFLLRN, before the rate of Ca^++ flux was measured.
# PAR4 = molecular target: T2, PAR4 (Homo sapiens, UniProt Q96RI0); test: Human neutrophil chemotaxis to AYPGKF; type: cell-based; parameters: endogenous in cells; host or cells: human peripheral blood neutrophils; details: 100 μM AYPGKF
# T2 sequence (Q96RI0 18-385): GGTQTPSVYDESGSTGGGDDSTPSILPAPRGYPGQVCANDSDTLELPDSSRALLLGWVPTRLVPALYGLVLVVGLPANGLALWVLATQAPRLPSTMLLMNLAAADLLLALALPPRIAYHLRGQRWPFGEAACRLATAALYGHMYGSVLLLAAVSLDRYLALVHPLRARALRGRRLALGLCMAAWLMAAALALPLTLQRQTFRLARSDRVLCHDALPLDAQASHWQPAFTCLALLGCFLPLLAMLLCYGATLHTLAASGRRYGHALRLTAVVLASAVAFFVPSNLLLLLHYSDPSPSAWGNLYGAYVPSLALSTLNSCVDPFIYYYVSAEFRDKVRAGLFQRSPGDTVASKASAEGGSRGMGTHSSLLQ
# Description: (A) Human neutrophils (n=4 normal volunteers) were analyzed for surface expression of human PAR1, PAR2, and PAR4 by flow cytometry with PAR-specific antibodies. […] Chemotaxis index is the ratio of directed versus random migration over 30 min through a 5-μm pore filter.
# P2pal-18S had no effect on PAR1-dependent platelet aggregation (FIG. 5A). Neither P2pal-18S nor P2pal-14GQ caused membrane disruption or apoptosis as assessed by propidium iodide uptake in SW620 cells with up to 30 μM concentrations of pepducin (FIG. 5B).
Clearance / plasma half-life in words [1],Peak plasma level ([1]; between 0.5 and 8 hours),"Antagonist activity, neutrophil chemotaxis, PAR4 (PAR4)",SMILES,Extent of inhibition of calcium mobilization (PAR1)
sustained plasma half-life,5.0,–,CCCCCCCCCCCCCCCC(=O)N[C@H](C(=O)N[C@@H](CC(C)C)C(=O)N[C@@H](CCCCN)C(=O)N[C@@H](CCSC)C(=O)N[C@@H](CCCCN)C(=O)N[C@H](C(=O)N[C@@H](CCCCN)C(=O)N[C@@H](CCCCN)C(=O)N1CCC[C@H]1C(=O)N[C@@H](C)C(=O)N[C@H](C(N)=O)C(C)C)C(C)C)[C@@H](C)CC [P1pal-i1-11] (Palmitoyl-ILKMKVKKPAV-NH2),less effective in inhibiting the Gq mediated calcium signal
–,–,no antagonist activity,CCCCCCCCCCCCCCCC(=O)N[C@@H](CCCNC(=N)N)C(=O)N[C@@H](CO)C(=O)N[C@@H](CO)C(=O)N[C@@H](C)C(=O)N[C@@H](CCSC)C(=O)N[C@@H](CC(=O)O)C(=O)N[C@@H](CCC(=O)O)C(=O)N[C@@H](CC(N)=O)C(=O)N[C@@H](CO)C(=O)N[C@@H](CCC(=O)O)C(=O)N[C@@H](CCCCN)C(=O)N[C@@H](CCCCN)C(=O)N[C@@H](CCCNC(=N)N)C(=O)N[C@@H](CCCCN)C(=O)N[C@@H](CO)C(=O)N[C@@H](C)C(=O)N[C@H](C(=O)N[C@@H](CCCCN)C(N)=O)[C@@H](C)CC [P2pal-18S],–

# Reference: patent US10913781B2, “Pepducin design and use” (Tufts Medical Center, Inc., priority 2011, dated 2021)
